From US11040981B2, “Pyrrolotriazine compounds and methods of inhibiting TAM kinases” (Syros Pharmaceuticals, Inc., priority 2017, dated 2021)

Key:
FLT3 = biological target: T1, FLT3 (Homo sapiens, UniProt P36888); assay: TR-FRET kinase activity assay, FLT3; assay type: biochemical; details: ATP at Km, 60 minutes
T1 sequence (P36888 27-993): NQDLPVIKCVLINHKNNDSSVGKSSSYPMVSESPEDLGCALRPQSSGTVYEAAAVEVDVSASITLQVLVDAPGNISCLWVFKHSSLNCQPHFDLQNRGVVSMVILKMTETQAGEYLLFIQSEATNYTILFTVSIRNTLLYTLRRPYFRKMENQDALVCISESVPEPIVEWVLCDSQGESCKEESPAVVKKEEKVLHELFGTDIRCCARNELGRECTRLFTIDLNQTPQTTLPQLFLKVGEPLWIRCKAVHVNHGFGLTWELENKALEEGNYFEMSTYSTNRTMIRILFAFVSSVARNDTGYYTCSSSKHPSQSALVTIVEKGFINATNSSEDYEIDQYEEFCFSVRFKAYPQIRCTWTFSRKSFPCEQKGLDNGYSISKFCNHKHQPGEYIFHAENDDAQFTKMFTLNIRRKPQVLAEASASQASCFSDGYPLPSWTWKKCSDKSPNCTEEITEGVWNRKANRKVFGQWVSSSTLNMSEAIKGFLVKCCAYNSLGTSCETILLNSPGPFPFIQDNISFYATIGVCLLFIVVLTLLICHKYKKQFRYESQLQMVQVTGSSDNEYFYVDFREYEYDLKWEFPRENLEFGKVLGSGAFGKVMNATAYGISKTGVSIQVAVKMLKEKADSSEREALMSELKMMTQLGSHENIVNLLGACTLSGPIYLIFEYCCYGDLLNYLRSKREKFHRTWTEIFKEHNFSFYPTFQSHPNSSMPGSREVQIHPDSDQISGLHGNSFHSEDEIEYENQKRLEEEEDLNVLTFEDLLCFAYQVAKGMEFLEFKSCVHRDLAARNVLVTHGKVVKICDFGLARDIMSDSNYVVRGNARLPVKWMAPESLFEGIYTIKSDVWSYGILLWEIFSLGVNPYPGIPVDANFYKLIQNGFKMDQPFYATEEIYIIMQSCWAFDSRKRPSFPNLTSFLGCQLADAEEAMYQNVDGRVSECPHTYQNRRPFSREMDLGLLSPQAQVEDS
In short: (§1)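 Each kinase phosphorylated a fluorescent-labelled tyrosine peptide in 50 mM HEPES pH 7.5, 10 mM MgCl2, 1 mM EGTA, 0.01% Brij 35, 1 mM DTT at RT, with ATP at Km for that enzyme. After 60 min, EDTA quench and Eu-anti-phosphotyrosine antibody (30 min, dark); IC50 from TR-FRET decrease.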

MERTK = biological target: T2, MERTK (Homo sapiens, UniProt Q12866); assay: TR-FRET kinase activity assay, MERTK; assay type: biochemical; details: for IC50: TR-FRET activity assay, ATP at Km, 60 minutes, read-out: Mer IC50
T2 sequence (Q12866 21-999): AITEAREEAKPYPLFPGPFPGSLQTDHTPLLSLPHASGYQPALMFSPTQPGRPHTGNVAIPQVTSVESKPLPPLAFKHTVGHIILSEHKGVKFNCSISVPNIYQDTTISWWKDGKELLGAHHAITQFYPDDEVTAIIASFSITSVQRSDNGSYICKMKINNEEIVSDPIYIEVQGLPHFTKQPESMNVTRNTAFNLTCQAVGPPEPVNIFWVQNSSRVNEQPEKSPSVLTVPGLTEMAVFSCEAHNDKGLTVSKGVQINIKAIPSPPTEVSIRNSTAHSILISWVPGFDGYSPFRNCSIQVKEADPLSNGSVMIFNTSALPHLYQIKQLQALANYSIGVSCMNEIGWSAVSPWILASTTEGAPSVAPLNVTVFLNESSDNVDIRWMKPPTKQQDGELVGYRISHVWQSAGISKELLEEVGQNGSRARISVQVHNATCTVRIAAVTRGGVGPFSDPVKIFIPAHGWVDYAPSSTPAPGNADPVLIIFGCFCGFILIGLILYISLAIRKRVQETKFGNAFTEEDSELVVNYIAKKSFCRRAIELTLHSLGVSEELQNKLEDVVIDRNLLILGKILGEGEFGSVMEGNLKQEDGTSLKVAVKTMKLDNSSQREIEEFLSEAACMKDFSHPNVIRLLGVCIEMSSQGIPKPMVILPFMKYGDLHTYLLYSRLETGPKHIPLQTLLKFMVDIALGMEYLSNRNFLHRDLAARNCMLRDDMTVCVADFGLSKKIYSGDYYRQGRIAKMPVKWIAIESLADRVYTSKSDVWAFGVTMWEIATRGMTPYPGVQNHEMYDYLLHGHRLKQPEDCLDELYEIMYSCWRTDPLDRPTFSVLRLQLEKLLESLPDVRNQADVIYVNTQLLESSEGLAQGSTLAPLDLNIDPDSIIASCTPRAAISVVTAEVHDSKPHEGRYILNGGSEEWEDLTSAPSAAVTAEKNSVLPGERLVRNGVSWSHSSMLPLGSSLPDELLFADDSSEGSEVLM
In short: as §1

[1] = ratio calculated as FLT3 IC50/Mer IC50
[2] = ratio of Mer to FLT3: FLT3 IC50/Mer IC50

IC50 (FLT3) [nM]	IC50 (MERTK) [nM]	FLT3/Mer ratio (FLT3 IC50/Mer IC50) (MERTK; [1])	FLT3/Mer ratio (FLT3 IC50/Mer IC50) (MERTK; [2])	Structure (SMILES)
1000 to 10000	≤ 100	+++ (“+++” represents a ratio of >100)	–	COCC(C)Nc1ncc2c(-c3cnn(C4COC4)c3)cc(C3CCNC(=O)C3)n2n1 (mixture of isomers) [Compound 592]
100 to 1000	≤ 100	+++ (“+++” represents a ratio of >100)	–	CC(COc1ccccc1)Nc1ncc2c(-c3cnn(C4COC4)c3)cc([C@H]3CC[C@H](O)CC3)n2n1 (mixture of isomers) [Compound 528]
1000 to 10000	≤ 100	+++ (“+++” represents a ratio of >100)	–	CC(Nc1ncc2c(-c3cnn(C4COC4)c3)cc(C3CCC(O)CC3)n2n1)c1cccnc1 (racemic) [Compound 536]
100 to 1000	≤ 100	–	+++ (“+++” represents a ratio of >100)	CC[C@H](C)Nc1ncc2c(C3CCNCC3)cc([C@H]3CC[C@H](O)CC3)n2n1 [Compound 135, (trans)-4-(2-((S)-sec-butylamino)-5-(piperidin-4-yl)pyrrolo[2,1-f][1,2,4]triazin-7-yl)cyclohexanol]
1000 to 10000	≤ 100	–	+++ (“+++” represents a ratio of >100)	CC[C@H](C)Nc1ncc2c(C3CCN(c4nccc(C)n4)CC3)cc([C@H]3CC[C@H](O)CC3)n2n1 [Compound 136, (trans)-4-(2-((S)-sec-butylamino)-5-(1-(4-methylpyrimidin-2-yl)piperidin-4-yl)pyrrolo[2,1-f][1,2,4]triazin-7-yl)cyclohexanol]
100 to 1000	≤ 100	–	+++ (“+++” represents a ratio of >100)	CCCCC[C@H](C)Nc1ncc2c([C@H]3CC[C@@H](C(=O)N4CCS(=O)(=O)CC4)CC3)cc([C@H]3CC[C@H](O)CC3)n2n1 [Compound 137]
1000 to 10000	≤ 100	–	+++ (“+++” represents a ratio of >100)	COC[C@H](C)Nc1ncc2c(-c3ccc(C(=O)O)cc3)cc([C@H]3CC[C@H](O)CC3)n2n1 [Compound 139]
100 to 1000	≤ 100	–	+++ (“+++” represents a ratio of >100)	COC[C@H](C)Nc1ncc2c(-c3ccc(CN4CCOCC4)cc3)cc([C@H]3CC[C@H](O)CC3)n2n1 [Compound 140]
100 to 1000	≤ 100	–	+++ (“+++” represents a ratio of >100)	COC[C@H](C)Nc1ncc2c(C3=CCOCC3)cc([C@H]3CC[C@H](O)CC3)n2n1 [Compound 141]
100 to 1000	≤ 100	–	+++ (“+++” represents a ratio of >100)	COCC(C)Nc1ncc2c(-c3ccc(CN4CCCC4)cc3)cc(C3CCC(O)CC3)n2n1 (stereo not drawn) [Compound 142]
1000 to 10000	≤ 100	+++ (“+++” represents a ratio of >100)	–	C[C@H](Nc1ncc2c(-c3cnn(C4COC4)c3)cc([C@H]3CC[C@H](O)CC3)n2n1)C(F)(F)F [Compound 510]
100 to 1000	≤ 100	+++ (“+++” represents a ratio of >100)	–	COC[C@H](C)Nc1ncc2c(-c3ccnc(N4CCN(CC5COC5)CC4)c3)cc([C@H]3CC[C@H](O)CC3)n2n1 [Compound 512]
100 to 1000	≤ 100	+++ (“+++” represents a ratio of >100)	–	C[C@@H](COC(F)F)Nc1ncc2c(-c3ccc(S(C)(=O)=O)nc3)cc([C@H]3CC[C@H](O)CC3)n2n1 [Compound 513]
1000 to 10000	≤ 100	+++ (“+++” represents a ratio of >100)	–	CCN(C(=O)N1CCN(c2cc(-c3cc([C@H]4CC[C@H](O)CC4)n4nc(N[C@@H](C)COC)ncc34)ccn2)CC1)C(C)C [Compound 514]
100 to 1000	≤ 100	+++ (“+++” represents a ratio of >100)	–	COC[C@H](C)Nc1ncc2c(-c3cnn(C4COC4)c3)cc(C3CCC(F)(F)CC3)n2n1 [Compound 515]
1000 to 10000	≤ 100	+++ (“+++” represents a ratio of >100)	–	COC[C@H](C)Nc1ncc2c(-c3cnn(C(C)(C)C(=O)N4CCCC5(COC5)C4)c3)cc([C@H]3CC[C@H](O)CC3)n2n1 [Compound 516]
1000 to 10000	≤ 100	+++ (“+++” represents a ratio of >100)	–	Cc1nnc(C(C)(C)n2cc(-c3cc([C@H]4CC[C@H](O)CC4)n4nc(N[C@@H](C)COC(F)F)ncc34)cn2)o1 [Compound 517]
1000 to 10000	≤ 100	+++ (“+++” represents a ratio of >100)	–	COC[C@H](C)Nc1ncc2c(-c3ccnc(N4CCc5cnn(C)c5C4)c3)cc([C@H]3CC[C@H](O)CC3)n2n1 [Compound 518]
100 to 1000	≤ 100	+++ (“+++” represents a ratio of >100)	–	COC[C@H](C)Nc1ncc2c(-c3cnn(C4COC4)c3)cc(C3CCSCC3)n2n1 [Compound 522]
100 to 1000	≤ 100	+++ (“+++” represents a ratio of >100)	–	C[C@@H](Nc1ncc2c(-c3cnn(C4COC4)c3)cc([C@H]3CC[C@H](O)CC3)n2n1)C(F)(F)F [Compound 527]
1000 to 10000	≤ 100	+++ (“+++” represents a ratio of >100)	–	COC[C@H](C)Nc1ncc2c(-c3ccc([S@](C)(=N)=O)nc3)cc([C@H]3CC[C@H](O)CC3)n2n1 [Compound 532]

Structure (SMILES)	IC50 (FLT3) [nM]	IC50 (MERTK) [nM]	FLT3/Mer ratio (FLT3 IC50/Mer IC50) (MERTK; [1])	FLT3/Mer ratio (FLT3 IC50/Mer IC50) (MERTK; [2])
CC(Cc1ccc(F)cc1)Nc1ncc2c(-c3cnn(C4COC4)c3)cc(C3CCC(O)CC3)n2n1 (racemic) [Compound 535]	≤ 100	≤ 100	++ (“++” represents a ratio of between 10 and 100)	–
CCOCC(C)Nc1ncc2c(-c3ccc(CN4CCN(C)CC4)cc3)cc(C3CCC(O)CC3)n2n1 (stereo not drawn) [Compound 138]	100 to 1000	≤ 100	–	++ (“++” represents a ratio of between 10 and 100)
COCC(C)Nc1ncc2c(-c3ccc(C(C)N4CCOCC4)cc3)cc(C3CCC(O)CC3)n2n1 (stereo not drawn) [Compound 143]	≤ 100	≤ 100	–	++ (“++” represents a ratio of between 10 and 100)
COC[C@H](C)Nc1ncc2c(-c3cnn(C4COC4)c3)cc(-c3cccc(O)c3)n2n1 [Compound 511]	100 to 1000	≤ 100	++ (“++” represents a ratio of between 10 and 100)	–
COC[C@H](C)Nc1ncc2c(-c3cnn(C4COC4)c3)cc(C3CCC(=O)NC3)n2n1 (stereo partly drawn) [Compound 526]	1000 to 10000	≤ 100	++ (“++” represents a ratio of between 10 and 100)	–
